Assays:
Assay in all cases: SILAC proteomics / in-gel fluorescence, competition of probe 13-t labeling by 3a
[1] = molecular target: proteins of HEK293T cells transiently overexpressing caspase-6 (Homo sapiens, UniProt P08238); settings: Comp; protein HSP90AB1 P08238
Description: (§1) Cells were lysed, and heavy and light SILAC lysates were combined in a 1:1 ratio and subjected to CuAAC reaction with azido-biotin to biotinylate probe-labeled proteins for subsequent capture on streptavidin-coated beads. Bead-bound proteins were split for analysis by in-gel fluorescence and tryptic digestion on-bead for LC–MS/MS analysis.
(§2) SILAC labeling and alkyne probe treatment: HEK293T cells were seeded into 8x 15 cm plates at
(§3) a density of 500,000 cells/plate. 4 of these plates were grown in light SILAC DMEM and 4 were
(§4) grown in heavy SILAC DMEM all containing 10% FBS and 4.5g/L glucose. The next day, all 8
(§5) plates were transfected with a pCMV6-Entry plasmid coding for caspase-6-myc-DDK lacking the
(§6) prodomain. After 24 hours, media was replaced with fresh SILAC growth media containing 4.5 g/L
(§7) glucose and 3% FBS. 24 hours later the plates were treated with probe and inhibitor for 1 hours as
(§8) follows: 2 of the light plates were treated with vehicle, 2 light plates and 2 heavy plates treated with
(§9) for 60 minutes. After treatment, media was removed, and cells were washed with 15 mL PBS for 5
(§10) minutes. Cells were then harvested by scraping in cold PBS and lysed in the presence of Roche
(§11) complete protease inhibitors. Lysates were clarified by centrifugation at 10,000xg for 10 minutes and
(§12) the protein in the supernatant was quantified by BCA assay.
(§13) Proteomics assay: 1 mg of each lysate was diluted to 2mg/ml in PBS with Roche complete protease
(§14) inhibitors. To this was added 0.1 mM biotin-azide, 1 mM tris(2-carboxyethyl)phosphine (TCEP), 0.1
(§15) mM Tris((1-benzyl-4-triazolyl)methyl)amine (TBTA) ligand, and 1 mM CuSO4 in a final volume of
(§16) 0.5 mL. The reaction was incubated at room temperature for 1 hour and was vortexed every 15
(§17) minutes. After 1 hour, proteins are precipitated and are pelleted by centrifuging at 16,000xg for 4
(§18) min at 4 °C. The supernatants were discarded, and the pellets were solubilized with 0.5 mL cold
(§19) The cold methanol wash was then repeated, and the washed
(§20) pellets were resuspended in 1 mL of 1.2% SDS and sonicated until clear. The samples were heat
(§21) denatured at 80-90 °C for 5 minutes and any insoluble particles were removed by centrifugation at
(§22) 6,500xg for 5 minutes. The 1 mL supernatant was transferred to a 15 mL conical tubes containing 5
(§23) mL of PBS and 150 µL of washed neutravidin beads were added. The samples were incubated for 2
(§24) hours at 4 °C while rotating, at which point the samples were warmed to resolubilize any precipitated
(§25) SDS. The beads were pelleted by centrifugation at 1400xg for 3 min and washed for 10 minutes with
(§26) the following solutions: 2x 1% NP-40, 2x PBS + 1 M NaCl, and 2x 50 mM ammonium bicarbonate
(§27) (ABC) + 2 M urea. The beads were then transferred to a 1.5 mL microcentrifuge tube using 2x250
(§28) µL 100 mM Tris pH 8.0 + 4 M Guanidium hydrochloride (final volume 500 µL).

[2] = molecular target: T1, proteins of HEK293T cells transiently overexpressing caspase-6 (Homo sapiens, UniProt P22234); settings: Comp; protein PAICS P22234
T1 sequence (P22234 1-425): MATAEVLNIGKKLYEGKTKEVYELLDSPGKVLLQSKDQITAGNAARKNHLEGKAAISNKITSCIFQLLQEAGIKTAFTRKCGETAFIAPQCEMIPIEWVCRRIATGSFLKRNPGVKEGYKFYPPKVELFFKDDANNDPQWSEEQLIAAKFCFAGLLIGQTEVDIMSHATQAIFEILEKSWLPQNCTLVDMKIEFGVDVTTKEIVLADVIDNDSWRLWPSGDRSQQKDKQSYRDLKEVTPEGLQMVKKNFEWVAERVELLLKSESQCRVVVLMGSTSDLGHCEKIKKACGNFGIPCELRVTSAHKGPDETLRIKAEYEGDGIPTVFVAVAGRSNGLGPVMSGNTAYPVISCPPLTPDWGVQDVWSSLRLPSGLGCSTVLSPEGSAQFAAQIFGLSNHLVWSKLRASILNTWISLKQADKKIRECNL
Description: as §1, §2, §3, §4, §5, §6, §7, §8, §9, §10, §11, §12, §13, §14, §15, §16, §17, §18, §19, §20, §21, §22, §23, §24, §25, §26, §27, §28

[3] = molecular target: T2, proteins of HEK293T cells transiently overexpressing caspase-6 (Homo sapiens, UniProt P30041); settings: Comp; protein PRDX6 P30041
T2 sequence (P30041 1-224): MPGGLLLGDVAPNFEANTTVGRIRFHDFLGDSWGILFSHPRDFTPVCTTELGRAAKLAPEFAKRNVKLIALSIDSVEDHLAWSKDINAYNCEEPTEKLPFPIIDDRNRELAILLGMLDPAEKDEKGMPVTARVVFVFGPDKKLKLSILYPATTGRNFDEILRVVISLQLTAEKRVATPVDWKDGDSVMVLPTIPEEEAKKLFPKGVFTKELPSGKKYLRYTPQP
Description: as §1, §2, §3, §4, §5, §6, §7, §8, §9, §10, §11, §12, §13, §14, §15, §16, §17, §18, §19, §20, §21, §22, §23, §24, §25, §26, §27, §28

[4] = molecular target: proteins of HEK293T cells transiently overexpressing caspase-6 (Homo sapiens, UniProt P31689)
Description: as §1, §2, §3, §4, §5, §6, §7, §8, §9, §10, §11, §12, §13, §14, §15, §16, §17, §18, §19, §20, §21, §22, §23, §24, §25, §26, §27, §28

[5] = molecular target: proteins of HEK293T cells transiently overexpressing caspase-6 (Homo sapiens, UniProt P46060); settings: Comp; protein RANGAP1 P46060
Description: as §1, §2, §3, §4, §5, §6, §7, §8, §9, §10, §11, §12, §13, §14, §15, §16, §17, §18, §19, §20, §21, §22, §23, §24, §25, §26, §27, §28

[6] = molecular target: proteins of HEK293T cells transiently overexpressing caspase-6 (Homo sapiens, UniProt P62917); settings: Comp; protein RPL8 P62917
Description: as §1, §2, §3, §4, §5, §6, §7, §8, §9, §10, §11, §12, §13, §14, §15, §16, §17, §18, §19, §20, §21, §22, §23, §24, §25, §26, §27, §28

[7] = molecular target: proteins of HEK293T cells transiently overexpressing caspase-6 (Homo sapiens, UniProt Q14974); settings: Comp; protein KPNB1 Q14974
Description: as §1, §2, §3, §4, §5, §6, §7, §8, §9, §10, §11, §12, §13, §14, §15, §16, §17, §18, §19, §20, §21, §22, §23, §24, §25, §26, §27, §28

[8] = molecular target: T3, proteins of HEK293T cells transiently overexpressing caspase-6 (Homo sapiens, UniProt Q9BQG0); settings: Comp; protein MYBBP1A Q9BQG0
T3 sequence (Q9BQG0 1-1328): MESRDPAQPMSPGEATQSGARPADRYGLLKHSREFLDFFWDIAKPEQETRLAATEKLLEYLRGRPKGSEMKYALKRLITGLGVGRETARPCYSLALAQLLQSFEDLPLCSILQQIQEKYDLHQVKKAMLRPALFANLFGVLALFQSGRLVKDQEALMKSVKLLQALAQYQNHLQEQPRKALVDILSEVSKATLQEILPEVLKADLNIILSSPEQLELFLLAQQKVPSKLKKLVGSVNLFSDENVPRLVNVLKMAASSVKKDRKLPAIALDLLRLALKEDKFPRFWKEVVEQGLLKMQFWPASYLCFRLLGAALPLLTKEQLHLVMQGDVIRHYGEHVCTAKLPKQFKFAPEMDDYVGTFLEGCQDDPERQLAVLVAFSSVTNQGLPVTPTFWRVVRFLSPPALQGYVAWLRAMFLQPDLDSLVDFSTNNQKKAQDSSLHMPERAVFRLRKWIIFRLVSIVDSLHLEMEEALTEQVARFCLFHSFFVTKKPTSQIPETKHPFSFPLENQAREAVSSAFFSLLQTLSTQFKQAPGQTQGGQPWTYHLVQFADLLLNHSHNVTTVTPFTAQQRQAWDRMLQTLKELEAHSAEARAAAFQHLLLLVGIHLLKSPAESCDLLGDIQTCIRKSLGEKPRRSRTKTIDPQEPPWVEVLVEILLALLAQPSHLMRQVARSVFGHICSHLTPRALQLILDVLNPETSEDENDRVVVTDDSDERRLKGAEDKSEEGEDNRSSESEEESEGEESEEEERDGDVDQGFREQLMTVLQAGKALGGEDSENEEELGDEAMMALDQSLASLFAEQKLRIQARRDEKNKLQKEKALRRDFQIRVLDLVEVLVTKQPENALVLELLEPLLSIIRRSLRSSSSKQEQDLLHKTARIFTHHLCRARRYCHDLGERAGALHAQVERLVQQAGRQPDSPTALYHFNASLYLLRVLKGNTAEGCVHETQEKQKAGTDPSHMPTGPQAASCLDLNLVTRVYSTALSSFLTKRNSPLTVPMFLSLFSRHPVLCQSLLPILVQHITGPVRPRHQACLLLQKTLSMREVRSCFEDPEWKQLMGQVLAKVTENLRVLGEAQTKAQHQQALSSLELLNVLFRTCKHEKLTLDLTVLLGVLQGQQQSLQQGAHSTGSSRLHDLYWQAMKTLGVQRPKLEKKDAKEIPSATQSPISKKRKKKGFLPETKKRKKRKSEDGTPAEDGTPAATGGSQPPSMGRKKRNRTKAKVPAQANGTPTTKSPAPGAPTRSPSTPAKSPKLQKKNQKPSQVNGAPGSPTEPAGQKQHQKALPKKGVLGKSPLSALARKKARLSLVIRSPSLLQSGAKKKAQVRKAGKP
Description: as §1, §2, §3, §4, §5, §6, §7, §8, §9, §10, §11, §12, §13, §14, §15, §16, §17, §18, §19, §20, §21, §22, §23, §24, §25, §26, §27, §28

[9] = protein DNAJA1 (P31689), Exp Comp, analysis C6, p 0.0625, 5 peptides

Sequence of proteins of HEK293T cells transiently overexpressing caspase-6 (Homo sapiens, UniProt P31689) (P31689 whole entry): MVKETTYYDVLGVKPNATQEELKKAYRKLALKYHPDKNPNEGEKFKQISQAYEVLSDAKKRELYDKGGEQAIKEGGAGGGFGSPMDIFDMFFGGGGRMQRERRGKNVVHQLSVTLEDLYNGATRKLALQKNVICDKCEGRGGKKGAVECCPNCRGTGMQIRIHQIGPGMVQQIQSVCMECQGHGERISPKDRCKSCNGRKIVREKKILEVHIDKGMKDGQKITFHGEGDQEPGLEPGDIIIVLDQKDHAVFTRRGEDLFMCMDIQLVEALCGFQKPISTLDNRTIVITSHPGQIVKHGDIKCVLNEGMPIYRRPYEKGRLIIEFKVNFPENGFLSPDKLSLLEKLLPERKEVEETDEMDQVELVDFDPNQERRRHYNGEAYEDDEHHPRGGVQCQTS
Sequence of proteins of HEK293T cells transiently overexpressing caspase-6 (Homo sapiens, UniProt Q14974) (Q14974 whole entry): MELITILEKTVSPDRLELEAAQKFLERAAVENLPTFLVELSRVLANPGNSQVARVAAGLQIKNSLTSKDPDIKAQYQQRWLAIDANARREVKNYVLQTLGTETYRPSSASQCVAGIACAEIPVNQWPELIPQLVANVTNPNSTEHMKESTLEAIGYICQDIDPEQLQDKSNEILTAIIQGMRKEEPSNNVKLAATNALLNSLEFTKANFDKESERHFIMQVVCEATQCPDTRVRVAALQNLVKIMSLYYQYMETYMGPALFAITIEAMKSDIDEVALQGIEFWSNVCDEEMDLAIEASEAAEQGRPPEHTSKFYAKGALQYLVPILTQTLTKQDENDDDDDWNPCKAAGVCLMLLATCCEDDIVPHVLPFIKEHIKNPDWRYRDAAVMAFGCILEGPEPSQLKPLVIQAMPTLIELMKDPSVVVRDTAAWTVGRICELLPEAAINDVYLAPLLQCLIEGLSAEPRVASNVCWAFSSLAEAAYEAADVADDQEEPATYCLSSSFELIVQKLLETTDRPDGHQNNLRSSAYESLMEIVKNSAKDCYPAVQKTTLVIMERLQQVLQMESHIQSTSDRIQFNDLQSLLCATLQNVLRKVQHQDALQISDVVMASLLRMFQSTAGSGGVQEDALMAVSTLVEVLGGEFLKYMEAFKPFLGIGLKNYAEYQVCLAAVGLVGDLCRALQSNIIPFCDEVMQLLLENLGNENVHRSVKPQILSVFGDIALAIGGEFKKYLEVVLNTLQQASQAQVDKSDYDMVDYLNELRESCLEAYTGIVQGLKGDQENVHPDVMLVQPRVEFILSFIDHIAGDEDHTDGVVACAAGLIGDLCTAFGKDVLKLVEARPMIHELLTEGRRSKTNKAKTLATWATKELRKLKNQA
Sequence of proteins of HEK293T cells transiently overexpressing caspase-6 (Homo sapiens, UniProt P46060) (P46060 whole entry): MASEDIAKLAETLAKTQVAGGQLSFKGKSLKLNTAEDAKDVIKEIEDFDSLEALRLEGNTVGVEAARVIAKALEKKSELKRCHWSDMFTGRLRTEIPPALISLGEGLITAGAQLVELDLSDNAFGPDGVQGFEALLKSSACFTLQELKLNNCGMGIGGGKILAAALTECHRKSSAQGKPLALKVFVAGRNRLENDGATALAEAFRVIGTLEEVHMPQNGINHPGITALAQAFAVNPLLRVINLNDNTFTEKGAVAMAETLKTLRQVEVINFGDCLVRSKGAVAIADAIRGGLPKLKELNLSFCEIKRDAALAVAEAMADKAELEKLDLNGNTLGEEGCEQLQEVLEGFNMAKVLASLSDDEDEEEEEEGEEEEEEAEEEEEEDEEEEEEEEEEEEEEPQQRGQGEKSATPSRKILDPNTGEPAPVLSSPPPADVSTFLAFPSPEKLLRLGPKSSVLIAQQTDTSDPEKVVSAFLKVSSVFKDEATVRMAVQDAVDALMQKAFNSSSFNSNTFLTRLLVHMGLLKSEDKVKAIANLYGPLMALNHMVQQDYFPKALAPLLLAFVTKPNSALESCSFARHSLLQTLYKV
Sequence of proteins of HEK293T cells transiently overexpressing caspase-6 (Homo sapiens, UniProt P08238) (P08238 whole entry): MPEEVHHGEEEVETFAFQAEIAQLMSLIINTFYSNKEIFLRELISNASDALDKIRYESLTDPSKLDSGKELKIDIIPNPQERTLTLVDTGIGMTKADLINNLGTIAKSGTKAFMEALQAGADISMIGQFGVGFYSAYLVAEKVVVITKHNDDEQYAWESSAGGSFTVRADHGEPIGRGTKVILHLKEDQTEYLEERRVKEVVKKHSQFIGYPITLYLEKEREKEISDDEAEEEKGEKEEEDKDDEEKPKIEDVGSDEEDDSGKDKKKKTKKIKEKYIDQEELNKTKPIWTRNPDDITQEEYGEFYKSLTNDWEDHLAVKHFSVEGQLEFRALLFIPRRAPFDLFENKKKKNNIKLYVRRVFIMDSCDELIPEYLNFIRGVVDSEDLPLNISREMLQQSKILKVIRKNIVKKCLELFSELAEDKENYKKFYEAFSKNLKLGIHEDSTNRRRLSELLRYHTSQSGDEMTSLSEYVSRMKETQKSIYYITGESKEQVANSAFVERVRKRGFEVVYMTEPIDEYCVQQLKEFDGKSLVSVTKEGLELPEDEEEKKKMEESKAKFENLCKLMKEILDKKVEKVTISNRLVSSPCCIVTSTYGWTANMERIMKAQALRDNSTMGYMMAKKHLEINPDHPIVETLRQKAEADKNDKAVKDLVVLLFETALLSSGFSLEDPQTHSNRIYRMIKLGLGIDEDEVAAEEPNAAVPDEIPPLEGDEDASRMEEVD

Question: `C=CS(=O)(=O)N1C[C@H](C(=O)Nc2ccc(OC(F)(F)F)cc2)C[C@@H](c2ccccc2)C1` [3a] was tested. Which enrich.exp.med [1] did it give?
Answer: 0.6024

Question: And the enrich.exp.med [2]?
Answer: 0.7148

Question: And the enrich.exp.med [3]?
Answer: 0.6066

Question: And the enrich.exp.med ([4]; Comp, protein DNAJA1 P31689)?
Answer: 1.02

Question: What about the enrich.exp.med.lin [4, 9] of the same molecule?
Answer: 2.028

Question: And the enrich.exp.med.log2 [4, 9]?
Answer: 1.02

Question: And the enrich.exp.med [5]?
Answer: 0.6389

Question: What about the enrich.exp.med [6] of the same molecule?
Answer: 0.8074

Question: What about the enrich.exp.med [7] of the same molecule?
Answer: 0.6036

Question: What about the enrich.exp.med [8] of the same molecule?
Answer: 0.8156
